In publication PMC5840146, “Structure-Activity Relationship Analysis of 3-Phenylcoumarin-Based Monoamine Oxidase B Inhibitors” (Frontiers in Chemistry, 2018):
Where “and” joins values, the source holds several entries; their conditions need not be identical. Equal entries are not always repeated. Where two headings read alike, the source gives them in different places.

Tests used:
MAO-B = target: T1, MAO-B (Homo sapiens, UniProt P27338); test: continuous spectrophotometric MAO-B inhibition assay; type: biochemical; details: for MAO-B inhibition %: 10 µM, 2h; for LiPE: LiPE = pIC50 - QPlogPo/w, new analogs and pargyline; for IC50: duplicates
T1 construct: purchased Sigma-Aldrich
T1 sequence (P27338 1-520): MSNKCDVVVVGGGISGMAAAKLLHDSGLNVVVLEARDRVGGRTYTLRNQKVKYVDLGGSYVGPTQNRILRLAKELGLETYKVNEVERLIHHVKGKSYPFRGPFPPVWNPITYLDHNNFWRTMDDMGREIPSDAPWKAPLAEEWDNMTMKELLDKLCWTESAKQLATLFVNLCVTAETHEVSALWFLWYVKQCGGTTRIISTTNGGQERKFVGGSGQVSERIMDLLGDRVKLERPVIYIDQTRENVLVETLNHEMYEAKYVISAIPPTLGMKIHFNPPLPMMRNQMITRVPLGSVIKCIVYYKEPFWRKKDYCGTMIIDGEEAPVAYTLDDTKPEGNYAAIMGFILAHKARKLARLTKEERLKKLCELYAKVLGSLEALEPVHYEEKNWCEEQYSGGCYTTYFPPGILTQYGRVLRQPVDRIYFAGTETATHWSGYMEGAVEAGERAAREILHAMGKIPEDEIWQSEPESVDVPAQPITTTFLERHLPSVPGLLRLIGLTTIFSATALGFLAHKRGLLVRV
Description: (§1) Both monoamine oxidase A (MAO-A) and B (MAO-B) protein and the reagents for the chromogenic solution of vanillic acid (4-hydroxy-3-methoxylbenzoic acid, 97% purity), 4-aminoantipyrine (reagent grade), horseradish peroxidase and the substrate tyramine hydrochloride (minimum 99% purity) as well as the potassium phosphate buffer, which was prepared using potassium phosphate dibasic trihydrate (≥99% ReagentPlus™) and potassium phosphate monobasic (minimum 98% purity, molecular biology tested), were purchased from Sigma-Aldrich (St. Louis, MO, USA) for the spectrophotometric assay.
(§2) The protocol for continuous spectrophotometric assay (Holt et al., [1997]) was followed in the activity measurements. The assay was performed in 0.2 M potassium phosphate buffer pH 7.6 on 96-well plates (Nunc™ 96F microwell plate without a lid, Nunc A/S, Roskilde, DK) in 200 μl total volume. The chromogenic solution containing 1 mM vanillic acid, 500 μM 4-aminoantipyrine and 8 U/ml horseradish peroxidase in 0.2 M potassium phosphate buffer pH 7.6 was mixed anew for each measurement. 5 mM tyramine solution was used as the substrate. In order to determine the activity of both MAO-B and MAO-A, concentration series as duplicates were prepared. The protein was combined with the chromogenic solution and incubated 30 min at 37°C. The background signal was measured using multilabel reader (Victor^TM X4, 2030 Multilabel Reader, PerkinElmer, Waltham, MA, USA) at A490 before reaching the total 200 μl volume by adding 20 μl of tyramine to final concentration of 0.5 mM on the plate. As a result, the final concentration of the chromogenic solution on the plate was 250 μM vanillic acid, 125 μM 4-aminoantipyrine and 2 U/ml horseradish peroxide. After adding the substrate, the plates were measured 300 times every 15 s using 1 s exposure time. The device was set to 37°C for the duration of the experiment.
(§3) The experiment conditions should produce absorbance change of ~0.35 (Holt et al., [1997]). […] The same wide panel of coumarin derivatives was additionally used to analyze the MAO-A inhibition at 100 μM (Table 1, Supplementary Table S1).
(§4) The measured data was then fitted on a curve using non-linear regression with the equation for log[inhibitor] vs. response. The IC50 values were therefore determined based on the curve fit. The fitted curves are shown on –log scale in Supplementary Figures S1, S2.

ERα = target: T2, ERα (Homo sapiens, UniProt P03372); test: PolarScreen ER Alpha Competitor Assay (fluorescence polarization); type: binding; details: 10 μM
T2 construct: purchased Life Technologies
T2 sequence (P03372 1-595): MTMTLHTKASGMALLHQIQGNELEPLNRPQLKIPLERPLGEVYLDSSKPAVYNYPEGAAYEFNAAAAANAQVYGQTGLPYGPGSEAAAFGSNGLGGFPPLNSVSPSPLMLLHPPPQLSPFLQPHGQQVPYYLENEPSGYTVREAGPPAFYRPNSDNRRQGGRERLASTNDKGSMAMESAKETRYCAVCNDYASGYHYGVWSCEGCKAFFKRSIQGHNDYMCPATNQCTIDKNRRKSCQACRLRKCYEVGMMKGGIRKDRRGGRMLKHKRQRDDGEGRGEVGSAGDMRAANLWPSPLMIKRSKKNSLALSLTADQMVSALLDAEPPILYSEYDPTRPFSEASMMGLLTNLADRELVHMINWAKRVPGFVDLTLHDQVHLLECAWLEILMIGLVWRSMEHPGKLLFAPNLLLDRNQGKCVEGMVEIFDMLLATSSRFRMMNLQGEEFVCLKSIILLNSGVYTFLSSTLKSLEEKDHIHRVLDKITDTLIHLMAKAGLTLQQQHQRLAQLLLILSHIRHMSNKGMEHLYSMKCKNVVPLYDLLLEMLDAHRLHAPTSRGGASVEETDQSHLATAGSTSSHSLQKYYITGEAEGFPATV
Description: The pIC50 values for the derivatives (Table 1, Supplementary Table S1) were measured with green PolarScreen™ ER Alpha Competitor Assay (Life Technologies, CA, The United States of America) kit, following the manufacturer protocol as previously described (Niinivehmas et al., [2016]). The final concentration of the compounds ranged from 0.0007 to 10 000 nM in the dilution series which were performed as duplicates. The molecules were combined with 25 nM ERα and 4.5 nM fluormone in the assay buffer and placed on black low volume 384-well assay plate with NBS surface (Corning, NY, The United States of America). After mixing the assay plate, it was incubated for 2 h in RT. The fluorescence polarization was measured using excitation wave length 485 and emission wave length 535 with bandwidths of 25/20 nm on a 2104 EnVision® Multilabel Plate Reader which had EnVision Workstation version 1.7 (PerkinElmer, MA, The United States of America).

MAO-A = target: T3, MAO-A (Homo sapiens, UniProt P21397); test: continuous spectrophotometric MAO-A inhibition assay; type: biochemical; details: for MAO-A inhibition %: 100 µM, 1h
T3 construct: purchased Sigma-Aldrich
T3 sequence (P21397 1-527): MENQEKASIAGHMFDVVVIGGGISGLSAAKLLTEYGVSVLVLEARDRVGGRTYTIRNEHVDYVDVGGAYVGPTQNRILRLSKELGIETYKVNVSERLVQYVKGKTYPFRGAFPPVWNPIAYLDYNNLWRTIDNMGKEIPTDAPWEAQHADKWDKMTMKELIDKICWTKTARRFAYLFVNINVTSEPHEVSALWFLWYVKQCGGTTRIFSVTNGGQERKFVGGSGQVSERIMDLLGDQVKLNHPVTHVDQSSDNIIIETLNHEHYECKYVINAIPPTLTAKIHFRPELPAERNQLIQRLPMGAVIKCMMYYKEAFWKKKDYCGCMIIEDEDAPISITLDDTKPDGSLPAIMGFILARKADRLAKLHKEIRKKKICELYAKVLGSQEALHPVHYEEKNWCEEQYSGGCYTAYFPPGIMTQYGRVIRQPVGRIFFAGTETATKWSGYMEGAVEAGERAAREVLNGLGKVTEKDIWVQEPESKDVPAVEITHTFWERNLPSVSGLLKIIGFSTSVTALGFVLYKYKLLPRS
Description: as §1, §2, §3, §4

human CYP1A2 = target: T4, human CYP1A2 (Homo sapiens, UniProt P05177); test: CYP1A2 inhibition, 7-ethoxyresorufin fluorescence assay; type: biochemical
T4 construct: purchased Corning Inc
T4 sequence (P05177 1-516): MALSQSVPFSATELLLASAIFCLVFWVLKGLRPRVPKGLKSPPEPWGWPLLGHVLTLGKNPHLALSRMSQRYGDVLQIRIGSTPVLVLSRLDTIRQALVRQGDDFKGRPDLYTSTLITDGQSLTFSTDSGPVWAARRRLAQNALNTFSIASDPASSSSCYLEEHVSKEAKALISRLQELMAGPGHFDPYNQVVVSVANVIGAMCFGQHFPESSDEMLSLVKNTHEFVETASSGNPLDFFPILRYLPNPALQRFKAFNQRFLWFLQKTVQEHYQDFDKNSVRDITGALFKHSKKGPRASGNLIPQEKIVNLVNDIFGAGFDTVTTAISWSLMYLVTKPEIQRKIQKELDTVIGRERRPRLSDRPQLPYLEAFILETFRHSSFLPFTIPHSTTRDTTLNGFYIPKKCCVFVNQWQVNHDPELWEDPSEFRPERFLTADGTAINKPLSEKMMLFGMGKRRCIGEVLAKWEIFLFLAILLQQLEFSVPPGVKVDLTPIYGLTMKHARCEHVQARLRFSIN
Description: Inhibition of CYP1A2 activity was determined with commercial heterologously expressed human CYP1A2 enzyme (Corning Inc., Corning, NY, USA) as described earlier (Korhonen et al., [2005]). The metabolic activity was not in the scope of this particular study. The assay was adapted to the 96-well plate format. In each well, a 150 μL incubation volume contained 100 mM Tris-HCl buffer (pH 7.4), 4.2 mM MgCl2,1 μM 7-ethoxyresorufin, 0.5 pmol of cDNA expressed CYP1A2, […] inhibitor, and a NADPH-generating system. All inhibitors were dissolved in ethanol, and the final concentration of ethanol was 2% in all incubations. The reaction was initiated by adding the NADPH-regenerating system after a 10 min preincubation at 37°C, and after a 20 min incubation, the reaction was terminated by the addition of 110 μL of 80% acetonitrile/20% 0.5 M Tris base. The formed fluorescence was measured with a Victor2 plate counter (Perkin-Elmer Life Sciences Wallac, Turku, Finland) at 570 nm excitation and 616 nm emission.

recombinant human HSD1 = target: T5, recombinant human HSD1 (Homo sapiens, UniProt P14061); test: HSD1 inhibition by HPLC with tritium labeled estrone/estradiol; type: biochemical; details: for inhibition at 1 µM / HSD1 inhibition %: 1 μM
T5 construct: made in house; host or cells: Sf9 insect cells
T5 sequence (P14061 1-328): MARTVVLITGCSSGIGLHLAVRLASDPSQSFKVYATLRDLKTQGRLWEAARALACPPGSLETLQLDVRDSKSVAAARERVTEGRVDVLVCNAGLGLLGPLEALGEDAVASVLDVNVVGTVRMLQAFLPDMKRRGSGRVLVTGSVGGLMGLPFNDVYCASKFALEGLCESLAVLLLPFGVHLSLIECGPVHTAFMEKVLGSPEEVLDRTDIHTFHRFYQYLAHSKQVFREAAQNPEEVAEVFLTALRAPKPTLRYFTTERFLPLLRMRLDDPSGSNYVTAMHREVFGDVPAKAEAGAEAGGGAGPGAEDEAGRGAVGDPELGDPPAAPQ

[1] = dilution series 50 μM to 1 nM, read-out: MAO-B inhibition IC50

Compound	MAO-B inhibition % (MAO-B)	ER inhibition % (ERα)	MAO-A inhibition % (MAO-A)	inhibition at 10 µM (MAO-B)	LiPE (MAO-B)	IC50 (MAO-B; [1])	inhibition at 100 µM (MAO-A; 100 μM)	IC50 (human CYP1A2)	inhibition at 1 µM (recombinant human HSD1)	HSD1 inhibition % (recombinant human HSD1)	IC50 (MAO-B; MAO-B inhibition IC50, dilution series 50 μM to 1 nM)	MAO-A inhibition (in words) (MAO-A; 100 μM)	HSD1 inhibition (in words) (recombinant human HSD1)
O=c1oc2cc(O)cc(O)c2cc1-c1cccc(O)c1 [derivative 42]	23.30%	0.44%	48.86%										
COc1ccc(-c2cc3cc(OC)ccc3oc2=O)cc1 [derivative 10, 6-methoxy-3-(4-methoxyphenyl)-2H-chromen-2-one]				97.6%	3.25	400 nM	10.1%	15000 nM	0%				
COc1cc(OC)cc(-c2cc3cc(Cl)cc(Cl)c3oc2=O)c1 [derivative 34]	46.01%		0.00%					30000 nM		0.30%			
COc1cc(OC)cc(-c2cc3cc(OC)ccc3oc2=O)c1 [derivative 9, 3-(3,5-dimethoxyphenyl)-6-methoxy-2H-chromen-2-one]				80.2%	3.38	~255 nM and 255 nM	0%	84000 nM	0%				
CC(=O)Oc1ccc(-c2cc3cc(Cl)cc(Cl)c3oc2=O)cc1F [derivative 7, 4-(6,8-dichloro-2-oxo-2H-chromen-3-yl)-2-fluorophenyl acetate]				91%	2.69	888 nM	0%	46000 nM	0%				
COc1ccc(-c2cc3cccc(OC(C)=O)c3oc2=O)cc1 [derivative 35]	42.37%		4.08%					26000 nM		0.00%			
COc1ccc2oc(=O)c(-c3ccc(C(F)(F)F)cc3)cc2c1 [derivative 1, 6-methoxy-3-(4-(trifluoromethyl)phenyl)-2H-chromen-2-one]				99.5%	3.17		0%	124000 nM	0%		~56 nM and 50 to 60 nM and 56 nM	does not produce MAO-A inhibition	does not inhibit HSD1
CC(=O)Oc1ccc2cc(-c3ccc(N(C)C)cc3)c(=O)oc2c1 [derivative 19, 3-(4-(dimethylamino)phenyl)-2-oxo-2H-chromen-7-yl acetate]				85.4%	3.27	866 nM	0%	370000 nM	15%				
